Legend:
F508del-CFTR = F508del-CFTR (Homo sapiens, UniProt P13569, DEL508-508); test: SILAC heavy pulse light-chase assay: ER CFTR folding efficiency in CFBE41o- cells; format: cell-based; conditions: 2.5-hour chase; 2 μM IDOR-3, 2 μM IDOR-4, 10 μM TEZ, 10 μM ELX, TEZ + ELX 10 μM each
Method: Stable isotope labeling using amino acids in cell culture (SILAC technology, Thermo Fisher Scientific) was used. For pulse-chase assays to determine CFTR folding efficiency at the ER, CFBE-F508del-CFTR or CFBE-WT-CFTR were seeded at 100,000 cells per well into a FNC-coated 24-well plate in CFBE growth medium and, the next day, incubated for 24 hours with “SILAC light medium” [arginine- and lysine-free RPMI 1640 #A33823, 84 mg/liter light L-arginine, # 89989, 146 mg/liter light L-lysine, #88429 and 20 mg/liter L-proline, # 89989 (to prevent a potential arginine-proline conversion)] supplemented with 10% dialyzed FBS. Cells were then washed once in PBS (37°C) and incubated for 1 hour with “starvation medium” (arginine-, lysine-free RPMI 1640, and 1% HSA) containing the indicated fixed concentrations of correctors. A 30-min metabolic pulse labeling was then performed by replacing the medium with “SILAC heavy medium” [arginine- and lysine-free RPMI 1640, L-proline (20 mg/liter), heavy L-arginine (84 mg/liter; ^13C6^15N4, #89990), heavy L-lysine (146 mg/liter; ^13C6^15N2, #88209), and 1% HSA] containing correctors. Cells were then washed with PBS and chased in SILAC light medium supplemented with 1% HSA and correctors. This medium was kept for 1, 2.5, 4, and 6 h of chase time followed by cell lysis in RIPA buffer as described above. […]

CFTR mRNA = CFTR mRNA quantification in CFBE cells; format: cell-based, human; conditions: 24 hours, 2000 nM
Method: CFBE-F508del-CFTR cells were seeded at 70,000 cells per well in a FNC-coated 48-well plate and incubated for 24 hours with 2000 nM of indicated correctors or DMSO vehicle diluted in growth medium deprived of FBS but supplemented with 1% HSA. CFBE-WT-CFTR cells were treated with DMSO vehicle accordingly. Then, cells were washed twice with PBS^+ and lysed in RLT buffer (QIAGEN) for 10 min on ice. Lysates were fully homogenized with QIAshredder (#79656, QIAGEN), and total RNA was extracted with an RNeasy Mini kit (#74106, QIAGEN) following the manufacturer’s instruction. At the end, a deoxyribonuclease treatment was performed with a DNA-free kit (Invitrogen, AM1906) following the manufacturer’s instruction. A reverse transcription (150 ng of total RNA per sample) with random hexamers was performed with the high-capacity cDNA Reverse Transcription Kit (#4368814, Thermo Fisher Scientific) for 2 hours at 37°C. Three microliters of cDNA was mixed with 10 μl of TaqMan Fast Universal PCR (polymerase chain reaction) Master Mix (2×) No AmpErase UNG (4367848, Life Technologies) containing the probe of interest (1:20), and a quantitative PCR was run [20″ at 95°C; 3″ at 95°C to 30″ at 60°C (40 cycles)] on a 7500 Applied Biosystems device. […] Reference gene-normalized CFTR mRNA expression was calculated using ΔΔCt method with CFTR expression in vehicle-treated CFBE-F508del cells set to 1.

Sequence of F508del-CFTR (P13569 with tags, fused parts or gaps DEL508-508): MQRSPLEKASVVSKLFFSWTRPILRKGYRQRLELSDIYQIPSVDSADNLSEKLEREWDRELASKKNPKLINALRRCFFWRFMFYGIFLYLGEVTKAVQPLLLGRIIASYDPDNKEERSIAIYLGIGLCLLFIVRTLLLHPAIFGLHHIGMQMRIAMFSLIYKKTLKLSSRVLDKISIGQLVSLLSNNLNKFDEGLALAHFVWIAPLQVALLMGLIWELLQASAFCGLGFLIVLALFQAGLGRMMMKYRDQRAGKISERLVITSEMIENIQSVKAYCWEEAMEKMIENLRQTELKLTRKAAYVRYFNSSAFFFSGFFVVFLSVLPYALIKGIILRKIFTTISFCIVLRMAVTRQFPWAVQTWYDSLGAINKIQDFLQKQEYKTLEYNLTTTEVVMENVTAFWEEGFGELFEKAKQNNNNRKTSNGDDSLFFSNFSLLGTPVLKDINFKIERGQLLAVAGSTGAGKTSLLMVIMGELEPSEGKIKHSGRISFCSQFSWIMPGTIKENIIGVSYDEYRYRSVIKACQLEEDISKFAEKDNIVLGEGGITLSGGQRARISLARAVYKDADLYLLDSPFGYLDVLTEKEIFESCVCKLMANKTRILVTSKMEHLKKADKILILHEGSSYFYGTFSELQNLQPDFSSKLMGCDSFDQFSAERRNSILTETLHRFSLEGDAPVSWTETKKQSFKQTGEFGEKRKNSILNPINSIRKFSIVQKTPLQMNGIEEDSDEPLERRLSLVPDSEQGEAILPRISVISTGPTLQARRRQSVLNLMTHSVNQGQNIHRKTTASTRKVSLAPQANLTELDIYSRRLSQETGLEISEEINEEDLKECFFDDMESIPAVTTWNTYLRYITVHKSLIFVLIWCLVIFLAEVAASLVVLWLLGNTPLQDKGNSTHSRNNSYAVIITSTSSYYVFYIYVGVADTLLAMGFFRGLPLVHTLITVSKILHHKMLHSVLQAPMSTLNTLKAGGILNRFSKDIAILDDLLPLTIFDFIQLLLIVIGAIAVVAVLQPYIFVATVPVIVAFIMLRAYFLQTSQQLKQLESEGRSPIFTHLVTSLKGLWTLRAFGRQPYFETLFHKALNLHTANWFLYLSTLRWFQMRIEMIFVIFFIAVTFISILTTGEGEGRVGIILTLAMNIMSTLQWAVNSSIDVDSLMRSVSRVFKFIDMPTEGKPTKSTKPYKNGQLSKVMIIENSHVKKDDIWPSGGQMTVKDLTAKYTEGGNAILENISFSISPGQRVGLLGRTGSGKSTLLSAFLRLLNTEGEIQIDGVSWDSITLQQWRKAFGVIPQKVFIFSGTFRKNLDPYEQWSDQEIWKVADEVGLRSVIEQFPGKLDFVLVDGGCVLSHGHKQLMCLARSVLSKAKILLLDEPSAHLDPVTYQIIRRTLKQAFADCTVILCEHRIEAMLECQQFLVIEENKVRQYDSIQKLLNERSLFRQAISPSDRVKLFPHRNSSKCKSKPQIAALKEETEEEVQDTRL

| B-to-C conversion rate (folding efficiency) (F508del-CFTR) | SMILES | effect on CFTR mRNA levels (CFTR mRNA) |
| --- | --- | --- |
| 6.7% | Cc1nn(C)cc1S(=O)(=O)NC(=O)c1ccc(-n2ccc(OCC(C)(C)C(F)(F)F)n2)nc1N1C[C@@H](C)CC1(C)C [ELX, elexacaftor] | neither macrocycles nor ELX/TEZ affected these levels |
| 2.4% | CC(C)(CO)c1cc2cc(NC(=O)C3(c4ccc5c(c4)OC(F)(F)O5)CC3)c(F)cc2n1C[C@@H](O)CO [TEZ, tezacaftor] | neither macrocycles nor ELX/TEZ affected these levels |
